From patent US11370763B2, “Compounds and compositions for treating conditions associated with NLRP activity” (Novartis AG, priority 2017, dated 2022)
Where two headings read alike, the source gives them in different places.

System: IL-1β production in PMA-differentiated THP-1 cells
Assay: IL-1β production in PMA-differentiated THP-1 cells stimulated with gramicidin (hTHP-1 assay containing 2% fetal bovine serum; Procedures 1-3)
Type: cell-based, human
Conditions: read-out: hTHP-1 IC50 (Average IC50 of compounds in hTHP-1 assay)
Method: The following protocol is suitable for testing the activity of the compounds disclosed herein.
Procedure 1: IL-1β Production in PMA-Differentiated THP-1 Cells Stimulated with Gramicidin
THP-1 cells were purchased from the American Type Culture Collection and sub-cultured according to instructions from the supplier. Cells were cultured in complete RPMI 1640 (containing 10% heat inactivated FBS, penicillin (100 units/ml) and streptomycin (100 μg/ml)), and maintained in log phase prior to experimental setup. Prior to the experiment, compounds were dissolved in dimethyl sulfoxide (DMSO) to generate a 30 mM stock. The compound stock was first pre-diluted in DMSO to 3, 0.34, 0.042 and 0.0083 mM intermediate concentrations and subsequently spotted using Echo550 liquid handler into an empty 384-well assay plate to achieve desired final concentration (e.g. 100, 33, 11, 3.7, 1.2, 0.41, 0.14, 0.046, 0.015, 0.0051, 0.0017 μM). DMSO was backfilled in the plate to achieve a final DMSO assay concentration of 0.37%. The plate was then sealed and stored at room temperature until required.
THP-1 cells were treated with PMA (Phorbol 12-myristate 13-acetate) (20 ng/ml) for 16-18 hours. On the day of the experiment the media was removed and adherent cells were detached with trypsin for 5 minutes. Cells were then harvested, washed with complete RPMI 1640, spun down, and resuspended in RPMI 1640 (containing 2% heat inactivated FBS, penicillin (100 units/ml) and streptomycin (100 μg/ml). The cells were plated in the 384-well assay plate containing the spotted compounds at a density of 50,000 cells/well (final assay volume 50 μl). Cells were incubated with compounds for 1 hour and then stimulated with gramicidin (5 μM) (Enzo) for 2 hours. Plates were then centrifuged at 340 g for 5 min. Cell free supernatant (40 μL) was collected using a 96-channel PlateMaster (Gilson) and the production of IL-1β was evaluated by HTRF (cisbio). The plates were incubated for 18 h at 4° C. and read using the preset HTRF program (donor emission at 620 nm, acceptor emission at 668 nm) of the SpectraMax i3x spectrophotometer (Molecular Devices, software SoftMax 6). A vehicle only control and a dose titration of CRID3 (100-0.0017 μM) were run concurrently with each experiment.
Procedure 2: IL-1β Production in PMA-Differentiated THP-1 Cells Stimulated with Gramicidin
THP-1 cells were purchased from the American Type Culture Collection and sub-cultured according to instructions from the supplier. Prior to experiments, cells were cultured in complete RPMI 1640 (containing 10% heat inactivated FBS, penicillin (100 units/ml) and streptomycin (100 μg/ml)), and maintained in log phase prior to experimental setup. Prior to the experiment THP-1 were treated with PMA (Phorbol 12-myristate 13-acetate) (20 ng/ml) for 16-18 hours. Compounds were dissolved in dimethyl sulfoxide (DMSO) to generate a 30 mM stock. On the day of the experiment the media was removed and adherent cells were detached with trypsin for 5 minutes. Cells were then harvested, washed with complete RPMI 1640, spun down, resuspended in RPMI 1640 (containing 2% heat inactivated FBS, penicillin (100 units/ml) and streptomycin (100 μg/ml). The cells were plated in a 384-well plate at a density of 50,000 cells/well (final assay volume 50 μl). Compounds were first dissolved in assay medium to obtain a 5× top concentration of 500 μM. 10 step dilutions (1:3) were then undertaken in assay medium containing 1.67% DMSO. 5× compound solutions were added to the culture medium to achieve desired final concentration (e.g. 100, 33, 11, 3.7, 1.2, 0.41, 0.14, 0.046, 0.015, 0.0051, 0.0017 μM). Final DMSO concentration was at 0.37%. Cells were incubated with compounds for 1 hour and then stimulated with gramicidin (5 μM) (Enzo) for 2 hours. Plates were then centrifuged at 340 g for 5 min. Cell free supernatant (40 μL) was collected using a 96-channel PlateMaster (Gilson) and the production of IL-1β was evaluated by HTRF (cisbio). […]

[1] = Homo sapiens, THP-1, hTHP-1 assay containing 2% fetal bovine serum, class symbols
[2] = Homo sapiens, THP-1, hTHP-1 assay containing 2% fetal bovine serum, given as numeric bound
[3] = hTHP-1 assay containing 2% fetal bovine serum, class symbols

SMILES	IC50 [1] [nM]	IC50 [2] [nM]	further results
CC(C)c1cc(F)cc(C(C)C)c1CC(=O)NS(=N)(=O)c1ccc(C(C)(C)O)cc1 (single isomer, unassigned) [Example 2]	1000 to 5000		
CC(C)c1cc(F)cc(C(C)C)c1CC(=O)NS(=N)(=O)c1ccc(C(C)(C)O)cc1 (single isomer, unassigned) [Example 3]		> 30000	
CC(C)(O)c1cnc(S(=N)(=O)NC(=O)Cc2c3c(cc4c2CCC4)CCC3)s1 (single isomer, unassigned) [Example 5]		> 30000	
CC(C)(O)c1cnc(S(=N)(=O)NC(=O)Cc2c3c(cc4c2CCC4)CCC3)s1 (single isomer, unassigned) [Example 6]	1000 to 5000		
CC(C)c1cc(F)cc(C(C)C)c1CC(=O)N[S@](=N)(=O)c1ncc(C(C)(C)O)s1 (single isomer, unassigned) [Example 8]	1000 to 5000		
CC(C)c1cc(F)cc(C(C)C)c1CC(=O)N[S@@](=N)(=O)c1ncc(C(C)(C)O)s1 (single isomer, unassigned) [Example 9]	200 to 1000		
CC(C)c1cc(F)cc(C2CC2)c1CC(=O)N=S(N)(=O)c1ccc(CN(C)C)cc1 (single isomer, unassigned) [Example 46, (S)- or (R)-2-(2-cyclopropyl-4-fluoro-6-isopropylphenyl)-N-(4-((dimethylamino)methyl)phenyl-sulfonimidoyl)acetamide]		> 30000	
CC(C)c1cc(F)cc(C2CC2)c1CC(=O)N=S(N)(=O)c1ccc(CN(C)C)cc1 (single isomer, unassigned) [Example 47, (R)- or (S)-2-(2-cyclopropyl-4-fluoro-6-isopropylphenyl)-N-(4-((dimethylamino)methyl)phenyl-sulfonimidoyl)acetamide]	200 to 1000		
CC(C)c1cc(F)cc(C(C)C)c1CC(=O)N=S(N)(=O)c1sc(C(C)(C)O)cc1F (single isomer, unassigned) [Example 50, (S)- or (R)-2-(4-fluoro-2,6-diisopropylphenyl)-N-(3-fluoro-5-(2-hydroxypropan-2-yl)thiophen-2-ylsulfonimidoyl)acetamide]			IC50 [3]: 8 to 40 nM
CC(C)c1c(F)c(C#N)cc(C2CC2)c1CC(=O)N=S(N)(=O)c1sc(C(C)(C)O)cc1F (single isomer, unassigned) [Example 54, (S)- or (R)-2-(4-cyano-6-cyclopropyl-3-fluoro-2-isopropylphenyl)-N-(3-fluoro-5-(2-hydroxypropan-2-yl)thiophen-2-ylsulfonimidoyl)acetamide]			IC50 [3]: 8 to 40 nM
CC(C)c1cc(Cl)c(F)c(C2CC2)c1CC(=O)N=S(N)(=O)c1sc(C(C)(C)O)cc1F (single isomer, unassigned) [Example 56, (S)- or (R)-2-(4-chloro-2-cyclopropyl-3-fluoro-6-isopropylphenyl)-N-(3-fluoro-5-(2-hydroxypropan-2-yl)thiophen-2-ylsulfonimidoyl)acetamide]			IC50 [3]: 200 to 1000 nM
CCc1cc(C#N)cc(C(C)C)c1CC(=O)N=S(N)(=O)c1ccc(CN(C)C)cc1 (single isomer, unassigned) [Example 58, (S)- or (R)-2-(4-cyano-2-ethyl-6-isopropylphenyl)-N-(4-((dimethylamino)methyl)phenyl-sulfonimidoyl)acetamide]		> 30000	
CCc1cc(C#N)cc(C(C)C)c1CC(=O)N=S(N)(=O)c1ccc(CN(C)C)cc1 (single isomer, unassigned) [Example 59, (R)- or (S)-2-(4-cyano-2-ethyl-6-isopropylphenyl)-N-(4-((dimethylamino)methyl)phenyl-sulfonimidoyl)acetamide]	5000 to 30000		
CC(C)c1cc(C#N)cc(C2CC2)c1CC(=O)N=S(N)(=O)c1ccc(CN(C)C)cc1F (single isomer, unassigned) [Example 62, (S)- or (R)-2-(4-cyano-2-cyclopropyl-6-isopropylphenyl)-N-(4-((dimethylamino)methyl)-2-fluorophenylsulfonimidoyl) acetamide]	1000 to 5000		
CC(C)c1cc(C#N)cc(C2CC2)c1CC(=O)N=S(N)(=O)c1ccc(CN(C)C)cc1F (single isomer, unassigned) [Example 63, (R)- or (S)-2-(4-cyano-2-cyclopropyl-6-isopropylphenyl)-N-(4-((dimethylamino)methyl)-2-fluorophenylsulfonimidoyl) acetamide]		> 30000	
CC(C)c1cc(C#N)cc(C(C)C)c1CC(=O)N=S(N)(=O)c1sc(C(C)(C)O)nc1CO (single isomer, unassigned) [Example 64, (S)- or (R)-2-(4-cyano-2,6-diisopropylphenyl)-N-(4-(hydroxymethyl)-2-(2-hydroxypropan-2-yl)thiazol-5-ylsulfonimidoyl)acetamide]			IC50 [3]: 200 to 1000 nM
COCc1cc(C(C)C)c(CC(=O)N=S(N)(=O)c2sc(C(C)(C)O)nc2CO)c(C(C)C)c1 (single isomer, unassigned) [Example 68, (S)- or (R)-2-(2,6-diisopropyl-4-(methoxymethyl)phenyl)-N-(4-(hydroxymethyl)-2-(2-hydroxypropan-2-yl)thiazol-5-ylsulfonimidoyl)acetamide]			IC50 [3]: 200 to 1000 nM

More lines, main results first:

IC50 [1] [nM]	IC50 [2] [nM]	SMILES	further results
200 to 1000		CC(C)(O)c1nc(CO)c(S(N)(=O)=NC(=O)Cc2c3c(cc4c2CCC4)CCC3)s1 (single isomer, unassigned) [Example 66, (S)- or (R)-2-(1,2,3,5,6,7-hexahydros-indacen-4-yl)-N-(4-(hydroxymethyl)-2-(2-hydroxypropan-2-yl)thiazol-5-ylsulfonimidoyl)acetamide]	
	> 30000	CC(C)(O)c1nc(CO)c(S(N)(=O)=NC(=O)Cc2c3c(cc4c2CCC4)CCC3)s1 (single isomer, unassigned) [Example 67, (R)- or (S)-2-(1,2,3,5,6,7-hexahydros-indacen-4-yl)-N-(4-(hydroxymethyl)-2-(2-hydroxypropan-2-yl)thiazol-5-ylsulfonimidoyl)acetamide]	
1000 to 5000		CC(C)c1cc(C#N)cc(C(C)C)c1CC(=O)N=S(N)(=O)c1ccc(CN(C)C)cc1 (single isomer, unassigned) [Example 72, (S)- or (R)-2-(4-cyano-2,6-diisopropylphenyl)-N-(4-((dimethylamino)methyl)phenyl-sulfonimidoyl)acetamide]	
	> 30000	CC(C)c1cc(C#N)cc(C(C)C)c1CC(=O)N=S(N)(=O)c1ccc(CN(C)C)cc1 (single isomer, unassigned) [Example 73, (R)- or (S)-2-(4-cyano-2,6-diisopropylphenyl)-N-(4-((dimethylamino)methyl)phenyl-sulfonimidoyl)acetamide]	
	> 30000	CC(C)c1cc(C#N)cc(C2CC2)c1CC(=O)N=S(N)(=O)c1ccc(CN(C)C)cc1 (single isomer, unassigned) [Example 74, (S)- or (R)-2-(4-cyano-2-cyclopropyl-6-isopropylphenyl)-N-(4-((dimethylamino)methyl)phenyl-sulfonimidoyl)acetamide]	
1000 to 5000		CC(C)c1cc(C#N)cc(C2CC2)c1CC(=O)N=S(N)(=O)c1ccc(CN(C)C)cc1 (single isomer, unassigned) [Example 75, (R)- or (S)-2-(4-cyano-2-cyclopropyl-6-isopropylphenyl)-N-(4-((dimethylamino)methyl)phenyl-sulfonimidoyl)acetamide]	
